Structures are written as SMILES.

These results are taken from publication PMC10455244, “Alpha-Mangostin: A Potent Inhibitor of TRPV3 and Pro-Inflammatory Cytokine Secretion in Keratinocytes” (International Journal of Molecular Sciences, 2023).

The experiment deals with T1, TRPV3 (G573S) (Homo sapiens, UniProt Q8NET8, G573S).
T1 construct: host or cells: HEK 293T (transient transfection, pEGFP-N1 co-transfected as a marker)
T1 sequence (Q8NET8 1-790 G573S): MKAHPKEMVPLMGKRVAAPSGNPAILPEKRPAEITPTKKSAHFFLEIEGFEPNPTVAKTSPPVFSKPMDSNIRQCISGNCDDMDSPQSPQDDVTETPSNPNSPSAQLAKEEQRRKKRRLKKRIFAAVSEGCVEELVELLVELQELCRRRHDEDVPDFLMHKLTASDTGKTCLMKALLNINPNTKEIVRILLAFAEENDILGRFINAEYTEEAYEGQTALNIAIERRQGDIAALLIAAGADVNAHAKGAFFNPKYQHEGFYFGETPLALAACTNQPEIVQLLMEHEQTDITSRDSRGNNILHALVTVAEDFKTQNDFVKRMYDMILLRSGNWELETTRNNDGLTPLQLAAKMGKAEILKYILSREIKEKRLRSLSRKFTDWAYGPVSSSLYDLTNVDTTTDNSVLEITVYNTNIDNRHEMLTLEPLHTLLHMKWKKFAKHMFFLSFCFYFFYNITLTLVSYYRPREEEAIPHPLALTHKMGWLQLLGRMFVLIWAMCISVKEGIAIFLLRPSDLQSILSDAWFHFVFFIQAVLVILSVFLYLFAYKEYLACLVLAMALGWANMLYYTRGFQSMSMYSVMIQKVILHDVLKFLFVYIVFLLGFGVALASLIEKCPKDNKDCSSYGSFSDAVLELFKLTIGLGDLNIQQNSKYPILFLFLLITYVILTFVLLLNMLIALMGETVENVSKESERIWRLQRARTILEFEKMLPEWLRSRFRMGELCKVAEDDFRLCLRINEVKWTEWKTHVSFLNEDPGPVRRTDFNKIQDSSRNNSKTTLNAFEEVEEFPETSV
The experiment is described as follows: Whole-cell patch-clamp, spontaneous current of TRPV3 G573S mutant in HEK 293T cells. Type of experiment: cell-based. As to conditions: −100 mV, read-out: IC50, inhibition of spontaneous current of TRPV3 G573S mutant. As to the method:
For electrophysiology recording and calcium measurement, 10 µM 74a (a TRPV3 inhibitor) was added about 6 h after transfection to inhibit channel activities and prevent cell death. First, the electrophysiology activities of the mutations were recorded using a whole-cell patch-clamp. Our data presented spontaneous TRPV3 currents when −100 mV to 100 mV ramp pulses were applied, which dramatically declined with the addition of 1 µM alpha-mangostin (Figure 4A).
Figure 4 Alpha-mangostin inhibited the activity of hyperactive TRPV3 mutant channels and rescued mutation-induced cell death. (A) Alpha-mangostin inhibited the channel current in representative TRPV3 (G573S)- and TRPV3 (G573C)-expressing HEK 293T cells. […] Currents were normalized to the response at −100 mV before adding alpha-mangostin. (C) Alpha-mangostin inhibited TRPV3-mediated intracellular calcium increase in TRPV3 (G573S)-expressing HEK 293T cells. […] The bar graph on the right summarizes the change in the intracellular calcium rise inhibited by alpha-mangostin. […]
In the whole-cell configuration, voltage ramps from −100 to +100 mV over 1 s were applied every 20 s and the holding potential was set at 0 mV. Sampling at 10 kHz and low-pass filtering at 5 kHz (w-c) were applied for all recorded currents. Recorded data were analyzed using Clampfit ver. […]
A general note: In patch-clamp work, channel activity is measured electrically.

For the compound `COc1c(O)cc2oc3cc(O)c(CC=C(C)C)c(O)c3c(=O)c2c1CC=C(C)C` [Alpha-mangostin], the IC50 (commonly the concentration that inhibits the measured activity by half) stood at 2.04 ± 0.64 µM.
